Measurements reported in patent US20060281807A1, “Quassinoid compositions for the treatment of cancer and other proliferative diseases” (Tapestry Pharmaceuticals, Inc., priority 2005, published 2006).

Legend:
[1] = tested on: LS-174T; experiment: MTT cytotoxicity assay (% kill), LS-174T; assay type: cell-based, human; conditions: 1.0 μg/mL, MTT after five days
Procedure: (§1) The following human tumor cell lines were obtained and cultured in sextuplicate microwells at 37° C. and 5% CO2 in humidified air and in 10% FBS in Eagles MEM: SK—N—FI, SK—N-AS, LS-174T, WiDr, HuTu-80, MCF7, NCI-AR, MES-Sar, and PL-45. Cells from each cell line were separately treated with an amount of one of the compounds of Formula I, II, or III (see Table 1). Cells were exposed to each compound (0.1 μg/mL or 1.0 μg/mL) for one hour or 24 hours, rinsed with drug-free media, and incubated for an additional five days. The number of viable cells after five days was measured using an MTT (3-(4,5-dimethylthiazol-2-yl)-2,5-diphenyltetrazolium bromide) assay (see, e.g., Mosmann, J. Immunol. Methods, 65(1-2), 55-63 (1983)).
(§2) The cytotoxicity of each drug was determined and expressed as the percent of cells killed (“% kill”).

[2] = tested on: SK-N-AS; experiment: MTT cytotoxicity assay (% kill), SK-N-AS; assay type: cell-based, human; conditions: 1.0 μg/mL, MTT after five days
Procedure: as §1, §2

[3] = tested on: Colon 38 (murine colon adenocarcinoma); experiment: Disk diffusion assay, zone of inhibition, Colon 38; zone differentials, potency and product; assay type: cell-based; parameters: key to C38ΔL1210 / C38ΔCFU: difference of zone of inhibition values, in zone units; conditions: for Sum: C38ΔL1210 plus C38ΔCFU; for C38ΔL1210 / C38ΔCFU: difference between zone of inhibition values; for C38ΔL1210: Colon38 vs L1210 leukemia; for C38ΔCFU: Colon38 vs normal cell CFU-GM; for Product: potency multiplied by zone differentials
Procedure: A disk diffusion assay was performed to define the differential cell killing ability of 15-O-(3′-hydroxy-3′-isopropyl-4′-methylpentanoyl)bruceolide. Seven cell types were assayed: L1210 (ATCC CCL-219) (murine leukemia), CCRF-CEM (ATCC CCL-119) (human leukemia), Colon 38 (murine colon adenocarcinoma), HCT116 (ATCC CCL-247) (human colorectal carcinoma), H125 (human lung carcinoma). The murine and human granulocyte/macrophage progenitor cell line (CFU-GM), served as controls.
Colon 38 cells (about 1 gram) were cut into small fragments in 15 mL of Hank's Balanced Salt Solution (HBSS) over a 100-mesh sieve and gently forced through by the scissors with HBSS constantly perfusing the sieve. The resulting material was then drawn into and out of a 5 mL syringe without a needle to further disperse the cell clumps. The cell solution was diluted and plated in 0.3% agarose in DMEM plus 10% heat-inactivated Bovine Calf Serum (BCS). For plating of all of the cell types (except controls), the 60 mm plates were first prepared with a hard agar bottom layer (0.6% agar in RPMI-1640 plus 15% BCS).
A 15 μl sample of each compound was dropped onto a 6.5 mm disk (Baxter filter disks). The disks were allowed to dry overnight and then placed close to the edge of a petri dish. Depending upon the cell type, the dishes were incubated for 7 to 10 days, and examined by an inverted stereo-microscope (10×) for measurement of the zone of inhibition. The zone of inhibition was measured from the edge of the filter disk to the beginning of normal-sized colony formation. The diameter of the filter disk, 6.5 mm, was arbitrarily taken as a zone of 200 units. Compounds that were selective for killing solid tumors, as compared to leukemia or normal cells (“solid tumor selective”) were defined as those compounds which produced a difference in zones between solid tumor cells and either normal or leukemia cells of at least 250 units. The results of this analysis are set forth in Table 4, which illustrates the relative diameters of the zones of inhibition by various drugs on the growth of the respective cell types at various drug dilutions.
The degree of differential sensitivity of several inventive compounds was compared with respect to the Colon38 cell line, the L1210 cell line, and the control CFU-GM cell lines. The degree of differential sensitivity was estimated by calculating the difference between the zone of inhibition values, as determined in Example 6, for the solid tumor compared to either the leukemia (C38ΔL1210) or normal cell (C38ΔCFU).
The potency of each of several inventive compounds was determined by identifying the dilution required to yield an average zone of inhibition of 500 units for the Colon38 cell type. Then the potency and the zone differentials were multiplied to define a “product” (see Table 5), which can be used to rank the compounds tested for their potential for further development; the greater the product value the greater the probability of useful chemotherapeutic utility.

[4] = listed as 15-O-(allyloxycarbonyl) bruceolide

Row | Compound | % Kill, LS-174T ([1]; 1 h exposure) | % Kill, LS-174T ([1]; 24 h exposure) | % Kill, SK-N-AS ([2]; 1 h exposure) | % Kill, SK-N-AS ([2]; 24 h exposure) | Sum [3] | C38ΔL1210 [3] | C38ΔCFU [3] | Product [3] | Sum [3, 4] | C38ΔL1210 [3, 4] | C38ΔCFU [3, 4] | Product [3, 4]
1 | CCC(O)(CC)CC(=O)OC1C(=O)OC2CC3C(C)=C(O)C(=O)CC3(C)C3C(O)C(O)C4(C(=O)OC)OCC23C14 (centres unmarked) [15-O-(3′-ethyl-3′-hydroxypentanoyl)-bruceolide] | 10% | 50% | 6% | 71% | 850 | 350 | 500 | 3400 | – | – | – | –
2 | COC(=O)[C@@]12OC[C@]34[C@H]([C@@H](O)[C@@H]1O)[C@@]1(C)CC(=O)C(O)=C(C)[C@@H]1C[C@H]3OC(=O)[C@H](OC(=O)CC(C)(C)C)[C@@H]24 [15-O-(3′,3′-dimethylbutanoyl)-bruceolide] | 7% | 60% | 0% | 62% | 800 | 450 | 350 | 3200 | – | – | – | –
3 | C=CCOC(=O)O[C@H]1C(=O)O[C@@H]2C[C@H]3C(C)=C(O)C(=O)C[C@]3(C)[C@H]3[C@@H](O)[C@H](O)[C@@]4(C(=O)OC)OC[C@]32[C@@H]14 [15-O-(allyloxycarbonyl)-bruceolide] | 1% | 43% | 1% | 43% | 1050 | 500 | 550 | 4100 | 600 | 350 | 250 | 3600
4 | COC(=O)C12OCC34C(CC5C(C)=C(O)C(=O)CC5(C)C3C(O)C1O)OC(=O)C(OC(=O)Cc1ccccc1)C24 (centres unmarked) [15-O-phenylacetyl bruceolide] | 20% | 61% | 0% | 38% | 1000 | 500 | 500 | 4000 | – | – | – | –
5 | COC(=O)[C@@]12OC[C@]34[C@H]([C@@H](O)[C@@H]1O)[C@@]1(C)CC(=O)C(O)=C(C)[C@@H]1C[C@H]3OC(=O)[C@H](OC(=O)C1=CCCCC1)[C@@H]24 [15-O-(1′-cyclohexenoyl)-bruceolide] | 12% | 35% | 0% | 5% | 550 | 200 | 350 | 550 | – | – | – | –
6 | COC(=O)C12OCC34C(CC5C(C)=C(O)C(=O)CC5(C)C3C(O)C1O)OC(=O)C(OC(=O)OCC1COC(C)(C)O1)C24 (centres unmarked) [15-O-(solketyloxycarbonyl)-bruceolide] | – | – | 0% | 28% | 950 | 400 | 550 | 1900 | – | – | – | –
7 | CCCCCC(=O)OC1C(=O)OC2CC3C(C)=C(O)C(=O)CC3(C)C3C(O)C(O)C4(C(=O)OC)OCC23C14 (centres unmarked) [15-O-hexanoylbruceolide] | 19% | 57% | 0% | 41% | 600 | 400 | 200 | 600 | – | – | – | –
8 | COC(=O)C12OCC34C(CC5C(C)=C(O)C(=O)CC5(C)C3C(O)C1OC(=O)C=C(C)C(C)C)OC(=O)C(OC(=O)C=C(C)C(C)C)C24 (centres unmarked) [12-O-(3,4-dimethyl-2-pentenoyl)-bruceantin] | – | – | 0% | 0% | – | – | – | – | – | – | – | –
9 | COC(=O)C12OCC34C(CC5C(C)=C(O)C(=O)CC5(C)C3C(O)C1O)OC(=O)C(OC(=O)CC1(O)CCCCC1)C24 (centres unmarked) [15-O-[(1′-hydroxycyclohexyl)-acetyl]-bruceolide] | 23% | 62% | 16% | 80% | 750 | 300 | 450 | 3000 | – | – | – | –
10 | COC(=O)C12OCC34C(CC5C(C)=C(O)C(=O)CC5(C)C3C(O)C1OC(=O)OCC1COC(C)(C)O1)OC(=O)C(OC(=O)OCC1COC(C)(C)O1)C24 (centres unmarked) [12,15-O,O-bis(Solketyloxycarbonyl)-bruceolide] | – | – | 3% | 5% | 1000 | 400 | 600 | 2000 | – | – | – | –
11 | COC(=O)[C@@]12OC[C@]34[C@H]([C@@H](O)[C@@H]1O)[C@@]1(C)CC(=O)C(O)=C(C)[C@@H]1C[C@H]3OC(=O)[C@H](OC(=O)CC1(O)CCCC1)[C@@H]24 [15-O-[(1′-hydroxycyclopentyl)-acetyl]-bruceolide] | 36% | 65% | – | – | 1300 | 600 | 700 | 5200 | – | – | – | –
12 | COC(=O)C12OCC34C(CC5C(C)=C(O)C(=O)CC5(C)C3C(O)C1O)OC(=O)C(OC(=O)C=Cc1ccccc1)C24 (centres unmarked) [15-O-cinnamyl-bruceolide] | 16% | 64% | 0% | 61% | – | – | – | – | – | – | – | –
13 | C=CCOC(=O)OC1C(=O)OC2CC3C(C)=C(O)C(=O)CC3(C)C3C(O)C(OC(=O)OCC=C)C4(C(=O)OC)OCC23C14 (centres unmarked) [12,15-O,O-bis-(allyloxycarbonyl)-bruceolide] | – | – | 0% | 2% | 650 | 300 | 350 | 650 | – | – | – | –
14 | CCC(=CC(=O)O[C@H]1C(=O)O[C@@H]2C[C@H]3C(C)=C(O)C(=O)C[C@]3(C)[C@H]3[C@@H](O)[C@H](O)[C@@]4(C(=O)OC)OC[C@]32[C@@H]14)CC [15-O-(3′-ethyl-2′-pentene-oyl)-brucelide] | 24% | 64% | 0% | 66% | – | – | – | – | – | – | – | –
15 | CCCCCCCCC=CCCCCCCCC(=O)OC1C(=O)OC2CC3C(C)=C(O)C(=O)CC3(C)C3C(O)C(O)C4(C(=O)OC)OCC23C14 (stereo not drawn) [15-O-(cis-9′-octadecenoyl)-bruceolide] | 4% | 13% | 0% | 0% | – | – | – | – | – | – | – | –
16 | COC(=O)C12OCC34C(CC5C(C)=C(O)C(=O)CC5(C)C3C(O)C1O)OC(=O)C(OC(=O)CC(C)(C)O)C24 (centres unmarked) [15-O-(3′-hydroxy-3′-methylbutanoyl)-bruceolide] | 29% | 64% | – | – | 950 | 400 | 550 | 2850 | – | – | – | –
17 | COC(=O)[C@@]12OC[C@]34[C@H]([C@@H](O)[C@@H]1O)[C@@]1(C)CC(=O)C(O)=C(C)[C@@H]1C[C@H]3OC(=O)[C@H](OC(=O)C=C1CCCCC1)[C@@H]24 [15-O-(cyclohexylideneacetyl)-bruceolide] | 13% | 63% | – | – | 700 | 350 | 350 | 2800 | – | – | – | –
